Some test systems named below: U251 CNS; CCRF-CEM leukemia; SN12C renal; COLO 205 colon; TK-10 renal; MDA-MB-231 breast; 786-0 renal; OVCAR-5 ovarian; OVCAR-4 ovarian; KM12 colon; HS 578T breast.
Experiment in all cases: growth of human tumour cells (NCI), 48 h

“And” between values parts separate entries of the source, which are not always exact repeats. Identical values can stand only once.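 Dose response: 5 concentrations. Exposure: 48 h. Format: 96-well plates. Endpoint: linear interpolation; highest concentration if not reached. Here, GI50 denotes the concentration required for 50% inhibition of growth. TGI marks complete inhibition of growth.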

In the case of `Cc1cc(S(=O)(=O)N=C2N(Cc3ccccc3)CCN2Cc2ccccc2)c(S)cc1Cl`, the TGI in the assay with U251 CNS, in the assay with CCRF-CEM leukemia, in the assay with SN12C renal, in the assay on COLO 205 colon, in the assay on TK-10 renal and in the assay with MDA-MB-231 breast was greater than 100 µM throughout. Further, the TGI in the assay on 786-0 renal, in the assay on OVCAR-5 ovarian, in the assay on OVCAR-4 ovarian, in the assay with KM12 colon and with HS 578T breast was greater than 100 µM each time.

As to `CC1(C)NC2C(=O)c3c([nH]c4ccccc34)[C@]3(C)CCC1CC23` (stereo not given in full), the TGI with U251 CNS, in the assay with CCRF-CEM leukemia, in the assay on SN12C renal, in the assay with COLO 205 colon, in the assay with TK-10 renal and in the assay on MDA-MB-231 breast was greater than 100 µM throughout. Also, the TGI in the assay with 786-0 renal, with OVCAR-5 ovarian, with OVCAR-4 ovarian, in the assay with KM12 colon and in the assay with HS 578T breast was greater than 100 µM each time.

`CCOc1cn(C2CC(O)C(CO)O2)c(=O)[nH]c1=O` (stereo not given): the TGI in the assay with U251 CNS, in the assay on CCRF-CEM leukemia, in the assay on SN12C renal, in the assay on COLO 205 colon, in the assay on TK-10 renal and with MDA-MB-231 breast was greater than 100 µM each time. Further, the TGI in the assay on 786-0 renal, in the assay with OVCAR-5 ovarian, with OVCAR-4 ovarian, with KM12 colon and in the assay on HS 578T breast was greater than 100 µM each time.

Turning to `CSc1ncnc2c1ncn2C1CC(Oc2ccc(C)cc2)C(COc2ccc(C)cc2)O1` (stereo not given), the TGI with U251 CNS, in the assay with CCRF-CEM leukemia, with SN12C renal, in the assay on COLO 205 colon, in the assay on TK-10 renal and with MDA-MB-231 breast was greater than 100 µM throughout. For the same compound, the TGI in the assay on 786-0 renal, in the assay with OVCAR-5 ovarian, with OVCAR-4 ovarian, with KM12 colon and with HS 578T breast was greater than 100 µM in each case.

Turning to `CC1=NNC(N)=N/C1=C\C(Sc1ccc(Cl)cc1)c1ccc([N+](=O)[O-])cc1` (stereo not given), the TGI with U251 CNS, with CCRF-CEM leukemia, in the assay on SN12C renal, in the assay with COLO 205 colon, in the assay with TK-10 renal and in the assay on MDA-MB-231 breast was greater than 100 µM throughout. The TGI in the assay on 786-0 renal, in the assay with OVCAR-5 ovarian, with OVCAR-4 ovarian, in the assay on KM12 colon and in the assay with HS 578T breast was greater than 100 µM in each case.

Regarding `Cc1ccc(SCC(CF)OC(C)n2cnc3c(=O)[nH]c(N)nc32)cc1` (stereo not given), the TGI with U251 CNS, in the assay with CCRF-CEM leukemia, in the assay with SN12C renal, in the assay on COLO 205 colon, in the assay with TK-10 renal and in the assay on MDA-MB-231 breast was greater than 100 µM in each case. The TGI in the assay with 786-0 renal, in the assay with OVCAR-5 ovarian, in the assay with OVCAR-4 ovarian, in the assay with KM12 colon and with HS 578T breast was greater than 100 µM throughout.

As to `O=C1/C(=C/c2ccc([N+](=O)[O-])cc2)C(=O)N(c2ccccc2)C1c1ccccc1` (stereo not given), the TGI with U251 CNS, in the assay on CCRF-CEM leukemia, in the assay with SN12C renal, with COLO 205 colon, in the assay on TK-10 renal and in the assay with MDA-MB-231 breast was greater than 10 µM each time. In addition, the TGI in the assay with 786-0 renal, in the assay with OVCAR-5 ovarian, in the assay on OVCAR-4 ovarian, with KM12 colon and with HS 578T breast was greater than 10 µM in each case.

For the compound `CON(C)C(=O)CNC(=O)OCC1c2ccccc2-c2ccccc21`, the TGI in the assay with U251 CNS, in the assay with CCRF-CEM leukemia, in the assay on SN12C renal, in the assay with COLO 205 colon, in the assay with TK-10 renal and with MDA-MB-231 breast was greater than 100 µM each time. In addition, the TGI in the assay with 786-0 renal, in the assay on OVCAR-5 ovarian, in the assay with OVCAR-4 ovarian, in the assay with KM12 colon and in the assay with HS 578T breast was greater than 100 µM in each case.

Regarding `CCOC(=O)/C=C(/C(=O)OCC)n1ccc(=O)n(Cc2cn(COCCOC(C)=O)nn2)c1=O`, the TGI is 83.3 µM with U251 CNS; 4.8 µM in the assay on CCRF-CEM leukemia; greater than 100 µM in the assay with SN12C renal; greater than 100 µM in the assay on COLO 205 colon; 32 µM in the assay on TK-10 renal; 67.9 µM in the assay on MDA-MB-231 breast. Further, the TGI in the assay with 786-0 renal is greater than 100 µM; with OVCAR-5 ovarian it was 35.2 µM; in the assay on OVCAR-4 ovarian, 42.7 µM; with KM12 colon, 35.9 µM; in the assay on HS 578T breast, 70.9 µM.

Turning to `OCC(O)COCn1nncc1Cn1ncc2c(SCc3ccccc3)ncnc21` (stereo not given), the TGI in the assay on U251 CNS, with CCRF-CEM leukemia, in the assay with SN12C renal, in the assay on COLO 205 colon, in the assay on TK-10 renal and with MDA-MB-231 breast was greater than 100 µM in each case. Also, the TGI was greater than 100 µM in the assay with 786-0 renal; greater than 100 µM in the assay on OVCAR-5 ovarian; greater than 100 µM in the assay on OVCAR-4 ovarian; greater than 100 µM with KM12 colon; 25.7 µM in the assay on HS 578T breast.

For the compound `COC1=C(OC)C(=O)C(Cc2c(C)nc3sc(C)cn23)=C(C)C1=O`, the TGI in the assay with U251 CNS is 39.7 µM; in the assay on CCRF-CEM leukemia, 53.7 µM; with SN12C renal, 31 µM; in the assay with COLO 205 colon, 36 µM; in the assay with TK-10 renal it was 35.6 µM; in the assay on MDA-MB-231 breast, 30.2 µM. For the same compound, the TGI in the assay on 786-0 renal came out at 39.4 µM; in the assay with OVCAR-5 ovarian, 40.7 µM; in the assay with OVCAR-4 ovarian, 23.1 µM; with KM12 colon, 55.5 µM; in the assay with HS 578T breast, 67.1 µM.

Consider `O=C(N/N=C\c1cccc2c([N+](=O)[O-])cccc12)Nc1ccccc1`, for which the TGI was 24 µM with U251 CNS; 33.9 µM in the assay with CCRF-CEM leukemia; 18.9 µM in the assay on SN12C renal; 50.7 µM in the assay with COLO 205 colon; 27.3 µM with TK-10 renal; 49.4 µM with MDA-MB-231 breast. Moreover, the TGI stood at 35.1 µM in the assay on 786-0 renal; 30.5 µM in the assay on OVCAR-5 ovarian; 29.2 µM in the assay with OVCAR-4 ovarian; 36.1 µM with KM12 colon; 33.5 µM in the assay with HS 578T breast.

`CSc1ccc2c(cc1=O)[C@@H](NC(=O)c1ccc(N)cc1)CCc1cc(O)c(O)c(O)c1-2`: the TGI in the assay with U251 CNS is 57.3 µM and > 100 µM; in the assay with CCRF-CEM leukemia it was greater than 100 µM; in the assay with SN12C renal it was > 75 µM and 90.1 µM; with COLO 205 colon it was greater than 100 µM; in the assay on TK-10 renal, greater than 100 µM; in the assay on MDA-MB-231 breast, > 75 µM and 79.6 µM. The TGI in the assay on 786-0 renal was 27.6 µM and 41.1 µM; in the assay on OVCAR-5 ovarian, 66.3 µM and > 100 µM; in the assay with OVCAR-4 ovarian, 34.1 µM and 54 µM; in the assay on KM12 colon it was 33.2 µM and 17 µM; in the assay with HS 578T breast, > 75 µM and 43.6 µM. Besides, the GI50 was 31.7 µM and 4.04 µM in the assay with COLO 205 colon; 24.2 µM and > 100 µM with TK-10 renal; 47.2 µM and 19.9 µM with MDA-MB-231 breast; 14.7 µM and 3.68 µM in the assay on KM12 colon; 24.3 µM and 10.2 µM in the assay with HS 578T breast.

In the case of `c1ccc2c(c1)ccn2CCc1c[nH]c2ccccc12`, the TGI in the assay with U251 CNS, in the assay on CCRF-CEM leukemia, in the assay with SN12C renal, in the assay with COLO 205 colon, in the assay with TK-10 renal and in the assay with MDA-MB-231 breast was greater than 10 µM throughout. The TGI in the assay with 786-0 renal, with OVCAR-5 ovarian, in the assay with OVCAR-4 ovarian, with KM12 colon and with HS 578T breast was greater than 10 µM in each case.

As to `Cc1c(S(=O)(=O)/N=C(\NO)Nc2ccc(Cl)c(Cl)c2)sc2ccc(Cl)cc12`, the TGI in the assay on U251 CNS was 49.9 µM; in the assay on CCRF-CEM leukemia, greater than 100 µM; in the assay with SN12C renal, 35.8 µM; with COLO 205 colon it was 35.7 µM; in the assay on TK-10 renal, 34.4 µM; with MDA-MB-231 breast, 55.3 µM. In addition, the TGI in the assay on 786-0 renal was determined as 39.6 µM; with OVCAR-5 ovarian, 38.2 µM; in the assay with OVCAR-4 ovarian it was 32.3 µM; in the assay with KM12 colon, 38.6 µM; in the assay on HS 578T breast, 80.9 µM.

Turning to `COc1ccc2ccccc2c1/C=C/C(=O)c1ccccc1`, the TGI in the assay on U251 CNS was determined as 4.98 µM; in the assay with CCRF-CEM leukemia, 4.17 µM; in the assay on SN12C renal, 11 µM; with COLO 205 colon it was 9.76 µM; with TK-10 renal, 7.45 µM; with MDA-MB-231 breast, 7.31 µM. Further, the TGI in the assay with 786-0 renal came to 11.9 µM; with OVCAR-5 ovarian, 22 µM; with OVCAR-4 ovarian, 9.4 µM; in the assay on KM12 colon, 8 µM; with HS 578T breast, 38.7 µM.

Take `CCOC(=O)CNc1c(OCc2ccccc2)c(=O)c1=O`: the TGI in the assay on U251 CNS, in the assay with CCRF-CEM leukemia, in the assay with SN12C renal, in the assay on COLO 205 colon, in the assay with TK-10 renal and in the assay on MDA-MB-231 breast was greater than 100 µM each time. Also, the TGI in the assay with 786-0 renal, in the assay on OVCAR-5 ovarian, with OVCAR-4 ovarian, with KM12 colon and in the assay on HS 578T breast was greater than 100 µM each time.

For `COc1cc(Cn2c3c(c4cc(O)ccc42)Cc2ccccc2C3=O)cc(OC)c1`, the TGI in the assay on U251 CNS is greater than 100 µM; in the assay on CCRF-CEM leukemia, 86 µM; in the assay on SN12C renal it was 57.3 µM; with COLO 205 colon, greater than 100 µM; in the assay with TK-10 renal, greater than 100 µM; with MDA-MB-231 breast it was greater than 100 µM. The TGI in the assay with 786-0 renal is greater than 100 µM; in the assay with OVCAR-5 ovarian it was 56.2 µM; in the assay on OVCAR-4 ovarian it was greater than 100 µM; in the assay with KM12 colon, greater than 100 µM; in the assay with HS 578T breast it was greater than 100 µM.

For `O=c1cc(-c2ccc(F)cc2)[nH]c2ncc(Cl)cc12`, the TGI with U251 CNS was greater than 83.4 µM; with CCRF-CEM leukemia it was 77.1 µM; with SN12C renal, greater than 100 µM; with COLO 205 colon, greater than 100 µM; in the assay with TK-10 renal, greater than 100 µM; with MDA-MB-231 breast it was greater than 100 µM. Further, the TGI with 786-0 renal was greater than 100 µM; in the assay on OVCAR-5 ovarian, greater than 100 µM; in the assay with OVCAR-4 ovarian, greater than 100 µM; with KM12 colon it was greater than 100 µM; with HS 578T breast, 85 µM.

`COc1ccc(C(=C(Cl)c2ccccc2)c2ccc(OC)cc2)cc1`: the TGI in the assay with U251 CNS, in the assay with CCRF-CEM leukemia, in the assay with SN12C renal, with COLO 205 colon, with TK-10 renal and in the assay on MDA-MB-231 breast was greater than 100 µM in each case. Also, the TGI in the assay with 786-0 renal, with OVCAR-5 ovarian, in the assay with OVCAR-4 ovarian, with KM12 colon and with HS 578T breast was greater than 100 µM each time.

Source of the values: PubChem BioAssay (NCI).
